The results in this text go back to patent publication US20260138976A1 (Hoffmann-La Roche Inc., priority 2022, published 2026).

Assay [1] concerns the target T1, DGKζ (hDGKzeta(1-928)-N-His) (Homo sapiens, UniProt Q13574).
T1 construct: hDGKzeta(1-928)-N-His; His (N); made in house; host or cells: Sf21 insect cells (baculovirus)
The assay is described as follows: In vitro DGK inhibition assay, DGKzeta ADP Glo (in house). The format is biochemical. As to conditions: 2 nM DGKζ, 50 μM ATP, 125 uM DLG in liposomes, 1 hour reaction. How it is done: (§1) DGKα and ζ kinases use ATP to phosphorylate the substrate 1,2-dilauroyl-sn-glycerol (DLG, incorporated in the liposomes). ATP is converted to ADP as a result of this enzymatic reaction. After the kinase reaction, an ATP-depletion reagent is added to terminate the kinase reaction and deplete any remaining ATP, leaving only ADP. Second, a detection reagent is added to simultaneously convert ADP to ATP and allow the newly synthesized ATP to be converted to light using a coupled luciferase/luciferin reaction.
(§2) Full length DGKα and ζ were expressed in Sf21 insect cells by infecting the cells with the baculovirus stock at MOI of 2. Purification of both enzymes was performed as previously described by Takahashi et al., PeerJ, 2018 (Takahashi, D.; Sakane, F. Expression and purification of human diacylglycerol 5 kinase alpha from baculovirus-infected insect cells for structural studies. PeerJ2018, 6, No. e5449).
(§3) A concentrated liposome solution was prepared in assay buffer without DTT and BSA: 2 mM of DLG in 21 mM of total liposome (2 mM DLG/8 mM PS/11 mM PC). The reaction mixtures contain the assay buffer with a final DLG concentration of 125 uM ATP concentrations of 25 μM (for DGKA assay) or 50 μM (for DGKZ assay). The reactions were started by addition of DGK α and ζ kinases at 4 nM and 2 nM final concentrations, respectively. After 1 hour reaction, the amount of ADP formed was detected with the ADP-Glo kinase assay (Promega) according to the manufacturer instructions. Compounds were added in 11-points dose response, starting at […], 1:3 dilutions, with a final DMSO concentration of 2%. The multidrop combi was used as a liquid handler and luminescence was read with 0.5 s by the envision reader (PE).
(In general: In ADP-Glo the light output rises with the ADP produced.)

For a further assay, the system named is primary human T-cells. The assay can be described thus: Proliferation assay (5 days, CellTiter-Glo, CD3-stimulated T-cells). As to conditions: for Emax proliferation (% activation): CD3 condition, normalised to DMSO (neutral) and 20 μM reference compound A1 = 100%; for EC50: Homo sapiens, T-cell, 120 h, CD3-stimulated primary human T-cells, 5 days, CellTiter-Glo, fitted sigmoidal curve, read-out: Tcell Proliferation CD3 EC50. It counts as cell-based. How it is done: As readouts for T-cell activation, 1L2 secretion after 24 hours and proliferation after 5 days was measured. Increases in IL2 secretion and proliferation upon compound treatment were assessed as the % of the maximum of reference compound A1. WO 2016/139181 discloses reference compound A1 as example 70. As a counter screen and to make sure that no unwanted TCR-independent activation was triggered, PBS conditions were run for all compounds.
Expanded primary human T-cells are thawed and cultured in RPMI 1640 (Gibco, #61870-010)+5% human serum (HS, Sigma, #H3667)+1 mM Sodium Pyruvate (Gibco, #11360-039)+50 μM 2-mercaptoethanol (Gibco, #31350-010) and 1× Pen-Strep (Life Technologies, #15140122) medium at density of 2 Mio/ml for 3 hours in 5% CO2, 37° C. and 95% humidity. For coating of plates, PBS++ only or PBS++ with CD3 antibody (concentration depending on donor and determined by CD3 titrations) is added 100 μl/well to Poly-D Lysine coated 96-well plates. Plates are sealed and incubated at room temperature for 3 hours on a table-top rocking platform. After incubation, plates are washed once with PBS−− and filled with 40 μl/well culture medium only. Compounds are then added (see next section) to medium only plates. After 3 hours of culturing the T-cells, cells are filtered through a cell strainer (Miltenyi Biotech, #130-041-407), counted again and concentration is adjusted to 1.25 Mio/ml.
Cells are then seeded 80 μl/well to the 40 μl/well including dispensed compounds according to plate layout. By adding cells, compounds are further diluted 1:3, and resulting in 100 k cells/120 μl/well. After 48 hours 40 μl of supernatant is collected carefully from the top while not disturbing the cells. Cells are assessed for proliferation 5 days later by measuring […] using CellTiterGlo (Promega).
Compounds were added in a 5 or 6 pt dose response with the Tecan D300e Digital Dispenser, all conditions 3 times more concentrated than the end-concentration, since cells are added afterwards (80 μl cells to 40 μl prepared medium with treatment). The DR was starting at 20 μM or 10 μM final top concentration and a dilution factor of 3.333. The positive control was the reference compound A1 that was added in a dose response as well, additionally to 3 wells of only 20 μM representing the positive stimulator control. All wells were normalized with DMSO to a final concentration of 0.6% (0.2% end-concentration).
After 5 days, for detection of ATP which is directly proportional to the number of cells present per well, the CellTiter-Glo® 2.0 Reagent is used. After visual control for toxicity or precipitations of the tested compounds, the plates are equilibrated to room temperature for 45 minutes. CellTiter-Glo® 2.0 Reagent is equilibrated to room temperature as well. After equilibration, an equal amount of CellTiter-Glo reagent is added to the cells (80 μl/well) with an electronic multichannel pipette. Plates are placed on a rocking platform for 15 minutes at room temperature. After incubation, the bottom of the plates is sealed with backing tape. Luminescence is measured with PHERAstar FSX (interval time 0.5 sec, gain 3000, focal height 15 mm) and exported as CSV file for analysis in Genedata screener.
CD3 and PBS plates were analysed separately in Genedata Screener using Roche Normalization PCT_POS_CTRL with DMSO set as Neutral Control and 20 μM of the reference compound A1 set as Stimulator Control/100%.
For CD3 conditions EC50 and Emax of the fitted sigmoidal curve were reported. If no curve could be fitted, the EC50 was reported as blank field and the Emax was based on individual data points. […] Compounds which activate unstimulated cells (see IL2 measurements) or compounds which negatively affected viability were flagged.
(In general: In ATP-based viability assays light output follows the ATP content of the culture.)

Assay [2] deals with T2, DGKα (hDGKalpha(1-735)-N-His) (Homo sapiens, UniProt P23743).
T2 construct: hDGKalpha(1-735)-N-His; His (N); made in house; host or cells: Sf21 insect cells (baculovirus)
T2 sequence (P23743 whole entry): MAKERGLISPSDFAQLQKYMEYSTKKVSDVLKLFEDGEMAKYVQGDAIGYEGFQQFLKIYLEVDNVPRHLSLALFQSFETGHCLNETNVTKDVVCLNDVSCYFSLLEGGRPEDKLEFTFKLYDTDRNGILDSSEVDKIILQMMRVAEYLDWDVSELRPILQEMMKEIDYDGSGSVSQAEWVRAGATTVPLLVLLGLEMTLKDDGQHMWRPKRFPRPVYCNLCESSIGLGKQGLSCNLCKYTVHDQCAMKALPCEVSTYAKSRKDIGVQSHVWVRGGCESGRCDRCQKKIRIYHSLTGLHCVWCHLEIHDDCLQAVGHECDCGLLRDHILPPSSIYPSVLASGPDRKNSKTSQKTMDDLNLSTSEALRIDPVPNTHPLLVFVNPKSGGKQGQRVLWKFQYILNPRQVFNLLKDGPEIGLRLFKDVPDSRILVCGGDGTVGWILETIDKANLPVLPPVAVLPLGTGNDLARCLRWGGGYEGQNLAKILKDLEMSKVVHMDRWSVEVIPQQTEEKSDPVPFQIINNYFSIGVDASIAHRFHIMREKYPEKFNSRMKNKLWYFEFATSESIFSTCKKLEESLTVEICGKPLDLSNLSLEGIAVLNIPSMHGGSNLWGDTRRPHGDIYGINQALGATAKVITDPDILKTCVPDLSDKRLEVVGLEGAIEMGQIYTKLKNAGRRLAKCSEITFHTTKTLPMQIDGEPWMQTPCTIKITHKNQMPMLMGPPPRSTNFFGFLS
The assay is described as follows: In vitro DGK inhibition assay, DGKalpha ADP Glo (in house). The format is biochemical. As to conditions: 4 nM DGKα, 25 μM ATP, 125 uM DLG in liposomes, 1 hour reaction. How it is done: as §1, §2, §3

T1 sequence (Q13574 whole entry): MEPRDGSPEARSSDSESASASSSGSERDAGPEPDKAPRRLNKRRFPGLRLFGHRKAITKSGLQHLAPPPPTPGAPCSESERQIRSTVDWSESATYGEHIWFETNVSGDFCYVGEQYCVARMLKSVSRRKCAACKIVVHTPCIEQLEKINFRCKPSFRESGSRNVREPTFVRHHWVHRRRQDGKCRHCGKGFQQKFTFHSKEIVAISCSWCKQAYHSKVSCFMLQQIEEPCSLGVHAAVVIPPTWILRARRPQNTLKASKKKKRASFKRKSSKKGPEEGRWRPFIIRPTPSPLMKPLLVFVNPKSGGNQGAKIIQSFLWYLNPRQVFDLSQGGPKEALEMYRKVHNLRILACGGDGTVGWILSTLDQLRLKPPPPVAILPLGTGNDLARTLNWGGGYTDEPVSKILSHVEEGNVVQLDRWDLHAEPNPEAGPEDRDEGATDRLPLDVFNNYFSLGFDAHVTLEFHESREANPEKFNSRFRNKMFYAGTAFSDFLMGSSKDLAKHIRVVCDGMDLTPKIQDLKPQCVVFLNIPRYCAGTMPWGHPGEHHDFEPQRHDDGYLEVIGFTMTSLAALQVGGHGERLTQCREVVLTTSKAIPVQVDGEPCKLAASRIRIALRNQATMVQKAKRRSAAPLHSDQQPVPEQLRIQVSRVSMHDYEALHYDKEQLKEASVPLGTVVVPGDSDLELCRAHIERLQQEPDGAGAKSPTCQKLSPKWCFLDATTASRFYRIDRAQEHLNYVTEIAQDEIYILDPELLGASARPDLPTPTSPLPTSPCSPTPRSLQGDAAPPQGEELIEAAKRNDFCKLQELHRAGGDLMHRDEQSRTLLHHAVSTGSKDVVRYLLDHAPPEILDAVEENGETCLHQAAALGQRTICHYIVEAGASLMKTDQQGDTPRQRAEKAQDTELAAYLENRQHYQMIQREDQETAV

Usually IC50 stands for the concentration needed to halve the response being measured. A higher IC50 goes with a need for much substance. In assay [1], `CC(C)(C#N)Cc1nnc(-c2ccc3c(c2)N(Cc2ccc(-c4ccc(OC(F)(F)F)cn4)cc2)C(=O)[C@@H](N)CS3(=O)=O)o1` [Example 174, 3-[5-[(3R)-3-amino-1,1,4-trioxo-5-[[4-[5-(trifluoromethoxy)-2-pyridyl]phenyl]methyl]-2,3-dihydro-1λ^6,5-benzothiazepin-7-yl]-1,3,4-oxadiazol-2-yl]-2,2-dimethyl-propanenitrile] gave an IC50 of 1.14 µM. In addition, in the assay with primary human T-cells, the “Emax proliferation (% activation)” value is reported as 124 % activation and the EC50 stood at 0.543 µM. Besides, half-maximal inhibition in assay [2] (IC50) was put at 9.3 µM.

Take `CCC(C#N)(CC)c1nnc(-c2ccc3c(c2)N(Cc2ccc(-c4ccc(OC(F)(F)F)cn4)cc2)C(=O)[C@@H](N)CS3(=O)=O)o1` [Example 176, 2-[5-[(3R)-3-amino-1,1,4-trioxo-5-[[4-[5-(trifluoromethoxy)-2-pyridyl]phenyl]methyl]-2,3-dihydro-1λ^6,5-benzothiazepin-7-yl]-1,3,4-oxadiazol-2-yl]-2-ethyl-butanenitrile]: in assay [1], the IC50 came out at 1.55 µM. In addition, in the assay on primary human T-cells, the “Emax proliferation (% activation)” value is recorded as 140 % activation and the EC50 amounted to 0.0857 µM. Also, half-maximal inhibition in assay [2] (IC50) required 1.53 µM.

As for `N[C@H]1CS(=O)(=O)c2ccc(-c3nnc(C4(N)CCC(F)(F)CC4)o3)cc2N(Cc2ccc(-c3ccc(OC(F)(F)F)cn3)cc2)C1=O` [Example 178, (3R)-3-amino-7-[5-(1-amino-4,4-difluoro-cyclohexyl)-1,3,4-oxadiazol-2-yl]-1,1-dioxo-5-[[4-[5-(trifluoromethoxy)-2-pyridyl]phenyl]methyl]-2,3-dihydro-1λ^6,5-benzothiazepin-4-one], the IC50 in assay [1] was 1.69 µM. In the assay with primary human T-cells, the “Emax proliferation (% activation)” value is reported as 96 % activation and the EC50 amounted to 0.133 µM. The molecule further registered an IC50 in assay [2] of 7.1 µM.

For `CC(C)(C#N)c1nnc(-c2ccc3c(c2)N(Cc2ccc(-c4ccc(OCC(F)(F)F)cn4)cc2)C(=O)[C@@H](N)CS3(=O)=O)o1` [Example 135, 2-[5-[(3R)-3-amino-1,1,4-trioxo-5-[[4-[5-(2,2,2-trifluoroethoxy)-2-pyridyl]phenyl]methyl]-2,3-dihydro-1λ^6,5-benzothiazepin-7-yl]-1,3,4-oxadiazol-2-yl]-2-methyl-propanenitrile], the IC50 in assay [1] was determined as 0.786 µM. For the same molecule, in the assay with primary human T-cells, the “Emax proliferation (% activation)” value is 149 % activation and the EC50 came to 0.257 µM. In addition, the IC50 in assay [2] came to 1.73 µM.

Consider `Cc1cc(-c2ccc(CN3C(=O)[C@@H](N)CS(=O)(=O)c4ccc(-c5nnc(C(C)(C)C#N)o5)cc43)cc2)ncc1OC(F)(F)F` [Example 144, 2-[5-[(3R)-3-amino-5-[[4-[4-methyl-5-(trifluoromethoxy)-2-pyridyl]phenyl]methyl]-1,1,4-trioxo-2,3-dihydro-1λ^6,5-benzothiazepin-7-yl]-1,3,4-oxadiazol-2-yl]-2-methyl-propanenitrile], for which the IC50 in assay [1] amounted to 0.86 µM. Besides, in the assay on primary human T-cells, the “Emax proliferation (% activation)” value is 87 % activation and the EC50 was determined as 0.291 µM. In assay [2], this molecule gave an IC50 of 15.5 µM.

Molecule `COC(F)(c1nnc(-c2ccc3c(c2)N(Cc2ccc(-c4ncn(C5CC5)n4)cc2)C(=O)[C@@H](N)CS3(=O)=O)o1)C(F)(F)F` (stereo partly drawn) [Example 66, (3R)-3-amino-5-[[4-(1-cyclopropyl-1,2,4-triazol-3-yl)phenyl]methyl]-1,1-dioxo-7-[5-(1,2,2,2-tetrafluoro-1-methoxy-ethyl)-1,3,4-oxadiazol-2-yl]-2,3-dihydro-1λ^6,5-benzothiazepin-4-one] gave an IC50 in assay [1] of 6.61 µM. In addition, in the assay with primary human T-cells, the “Emax proliferation (% activation)” value is listed as 112 % activation and the EC50 came out at 1.29 µM. Besides, in assay [2], the IC50 was found to be 14.9 µM.

Take `CC(C)(C#N)c1nnc(-c2ccc3c(c2)N(Cc2ccc(-n4cc(C(F)(F)F)nn4)cc2)C(=O)[C@@H](N)CS3(=O)=O)o1` [Example 145, 2-[5-[(3R)-3-amino-1,1,4-trioxo-5-[[4-[4-(trifluoromethyl)triazo1-1-yl]phenyl]methyl]-2,3-dihydro-1λ^6,5-benzothiazepin-7-yl]-1,3,4-oxadiazol-2-yl]-2-methyl-propanenitrile]: 0.955 µM corresponded to half-maximal inhibition in assay [1] (IC50). In the assay with primary human T-cells, the “Emax proliferation (% activation)” value worked out at 86 % activation and the EC50 stood at 4.26 µM. Also, half-maximal inhibition in assay [2] (IC50) was put at 18 µM.

In assay [1], `CC(C)(C#N)c1nnc(-c2ccc3c(c2)N(Cc2ccc(-n4cc(OC(F)(F)F)cn4)cc2)C(=O)[C@@H](N)CS3(=O)=O)o1` [Example 138, 2-[5-[(3R)-3-amino-1,1,4-trioxo-5-[[4-[4-(trifluoromethoxy)pyrazol-1-yl]phenyl]methyl]-2,3-dihydro-1λ^6,5-benzothiazepin-7-yl]-1,3,4-oxadiazol-2-yl]-2-methyl-propanenitrile] came in with an IC50 of 0.465 µM. For the same molecule, in the assay with primary human T-cells, the “Emax proliferation (% activation)” value is reported as 158 % activation and the EC50 stood at 0.0832 µM. Moreover, in assay [2], the IC50 is 0.657 µM.

In assay [1], `N#CC1(c2nnc(-c3ccc4c(c3)N(Cc3ccc(-c5ccc(OC(F)(F)F)cn5)cc3)C(=O)[C@@H](N)CS4(=O)=O)o2)CCOCC1` [Example 173, 4-[5-[(3R)-3-amino-1,1,4-trioxo-5-[[4-[5-(trifluoromethoxy)-2-pyridyl]phenyl]methyl]-2,3-dihydro-1λ^6,5-benzothiazepin-7-yl]-1,3,4-oxadiazol-2-yl]tetrahydropyran-4-carbonitrile] had an IC50 of 0.416 µM. Further, in the assay on primary human T-cells, the “Emax proliferation (% activation)” value is 101 % activation and the EC50 is 0.235 µM. The IC50 in assay [2] came to 2.06 µM.

As to `CC(C)(C#N)c1nnc(-c2ccc3c(c2)N(Cc2ccc(-c4ccc(OC(F)(F)F)nc4)cc2)C(=O)[C@@H](N)CS3(=O)=O)o1` [Example 137, 2-[5-[(3R)-3-amino-1,1,4-trioxo-5-[[4-[6-(trifluoromethoxy)-3-pyridyl]phenyl]methyl]-2,3-dihydro-1λ^6,5-benzothiazepin-7-yl]-1,3,4-oxadiazol-2-yl]-2-methyl-propanenitrile], the IC50 in assay [1] is 0.66 µM; in assay [2], 11.2 µM. For the same molecule, the “Emax proliferation (% activation)” value with primary human T-cells is given as 124 % activation. The EC50 in the assay with primary human T-cells amounted to 0.406 µM.
